The results in this text go back to EP4722205A1, “HETEROCYCLIC COMPOUND AND NOXIOUS ARTHROPOD-CONTROLLING COMPOSITION CONTAINING SAME” (Sumitomo Chemical Company, Limited, priority 2023, dated 2024).

Bounds are passed on as bounds.

Holding throughout (assay type): in vivo
The subject of assay [1] is cotton aphids (Aphis gossypii). The assay is described as follows: Test Method 1: foliar spray on cucumber seedling infested with cotton aphids (Formulation example 1). As to conditions: 120 h, spray 10 mL/seedling, examined after 5 days, 25°C, read-out: controlling value.
Assay [2] concerns cotton worm (Spodoptera litura). The experiment in a line: Test Method 3: sprayed cabbage leaves fed to second instar cotton worm. As to conditions: 120 h, second instar larvae, after 5 days, 25°C, read-out: mortality of insects.
The test system of assay [3] is diamondback moth (Plutella xylostella). The assay is described as follows: Test Method 4: sprayed cabbage leaves fed to second instar diamondback moth. As to conditions: 120 h, second instar larvae, after 5 days, 25°C, read-out: mortality of insects.
Assay [4] relates to Western corn rootworms (Diabrotica virgifera virgifera). The experiment in a line: Test Method 5: corn seedling immersion, Western corn rootworm. To be noted: 120 h, read-out: mortality of insects. The method, then:
(§1) Next, an efficacy of the present compound on controlling harmful arthropods is shown by Test examples. The following tests in the test examples below were conducted at 25°C.
Each 1 mg of the test compounds is dissolved into 50 µL of a mixed solution of polyoxyethylene sorbitan monolaurate and acetone (polyoxyethylene sorbitan monolaurate: acetone = 5 : 95 (v/v ratio)). Thereto is added water containing 0.03% by volume of Shindain (registered trademark) to prepare a diluted solution containing a prescribed concentration of the test compound.
A young entire seedling of Corns (Zea mays) is immersed into the diluted solution for 30 seconds. Thereafter, each two grains of the seedlings are installed in a plastic petri dish ([…]), and 10 Western corn rootworms (Diabrotica virgifera virgifera) at the second instar larval stage are released into the dish. After 5 days, the number of the dead insects is counted, and the mortality of insects is calculated by the following equation. Mortality(%) = (Numberofdeadinsects/10) × 100 [formula]

Assay [5] relates to housefly (Musca domestica). The assay is described as follows: Test Method 8: coated container contact test, housefly. As to conditions: 24 h, 40 mg/m^2, female adults, after one (1) day, 25°C, read-out: mortality of insects. The method, then:
as §1
Acetone solution in which test compounds are adjusted to 800 ppm are prepared, and the solution is poured into a container having an internal volume of 20 mL, and the solution is coated uniformly on an inner face of the container such that the test compound is made to be 40 mg/m^2, and the container is then dried.
Five (5) housefly (Musca domestica) female adults are placed in the container, and the cup is covered with the lid. After the prescribed timing is passed, the state of the housefly is examined, and the mortality of insects is calculated by the following equation. [formula]

Assay [6] concerns cotton worm (Spodoptera litura). The assay is described as follows: Test Method 9: sprayed cabbage seedling, third instar cotton worm (Formulation example 5). As to conditions: 144 h, third instar larvae, after 6 days, 25°C, read-out: controlling value.
The test system of assay [7] is diamondback moth (Plutella xylostella). The assay is described as follows: Test Method 10: sprayed cabbage seedling, third instar diamondback moth (Formulation example 5). To be noted: 144 h, third instar larvae, after 6 days, 25°C, read-out: controlling value.
In assay [8] the test system is cotton aphids (Aphis gossypii). The experiment in a line: Test Method 11: foliar spray on cucumber seedling infested with cotton aphids (Formulation example 5). To be noted: 120 h, spray 10 mL/seedling, examined after 5 days, 25°C, read-out: controlling value.
Assay [9] concerns common house mosquitos (Culex pipiens pallens). The experiment in a line: Test Method 12: mosquito larvae released into diluted solution. As to conditions: 24 h, last instar larvae, after 1 day, 25°C, read-out: controlling value. The method, then: The following tests in the test examples below were conducted at 25°C.
Into the diluted solution, 30 common house mosquitos (Culex pipiens pallens) at the last instar larval stage are released, and after 1 day, the state of the house mosquito larvae is examined, and the mortality of insects is calculated by the following equation. [formula]

Assay [10] deals with German cockroach (Blattella germanica). The assay is described as follows: Test Method 6: coated container contact test, German cockroach. As to conditions: 72 h, read-out: mortality of insects. The method, then: as §1
Acetone solution in which test compounds are adjusted to 800 ppm are prepared, and the solution is poured into a container having an internal volume of 50 mL, and the solution is coated uniformly on an inner face of the container such that the test compound is made to be 40 mg/m^2, and the container is then dried.
Five (5) German cockroach (Blattella germanica) male adults are placed in the container, and the cup is covered with the lid. After the prescribed timing is passed, the state of the German cockroach is examined, and the mortality of insects is calculated by the following equation. [formula]

Consider `CCS(=O)(=O)c1c(C(=O)N(C)c2nc3ccc(F)c(F)c3s2)nc2ccc(I)cn12` [compound 33], for which the mortality at 500 ppm in assay [1] is not below 90%; in assay [2], not below 80%; in assay [3], not below 80%. The mortality at 200 ppm in assay [4] was not below 80%; in assay [6], not below 80%; in assay [7], not below 80%; in assay [8], not below 90%. Further, the mortality at 40 mg/m2 in assay [5] was not below 80%. Besides, the results for the mortality at 50 ppm in [6], in [7] and in assay [8] were not below 80%, not below 80% and not below 90%, respectively. Further, the mortality at 3.5 ppm in [9] was not below 90%.

`CCS(=O)(=O)c1c(C(=O)N(C)c2nc3cc(F)c(F)cc3s2)nc2ccc(I)cn12` [compound 34]: the mortality at 500 ppm in assay [1] was not below 90%; in [2] it was not below 80%; in assay [3], not below 80%. Further, the mortality at 200 ppm in assay [4] was not below 80%; in [6], not below 80%; in [7] it was not below 80%; in [8], not below 90%. For the same molecule, in assay [5], the mortality at 40 mg/m2 is not below 80%. The mortality at 50 ppm in assay [6] is not below 80%; in assay [7], not below 80%; in [8], not below 90%. For the same molecule, in assay [9], the mortality at 3.5 ppm is not below 90%.

For `CCS(=O)(=O)c1c(C(=O)N(C)c2nc3cc(F)c(F)c(F)c3s2)nc2ccc(Br)cn12` [compound 44], the mortality at 500 ppm in assay [1] was not below 90%; in [2], not below 80%; in assay [3], not below 80%. The mortality at 40 mg/m2 in [10] and in assay [5] was not below 80% each time. The mortality at 50 ppm in [6] and in assay [7] was not below 80% throughout. Further, the mortality at 200 ppm is not below 80% in [6], not below 80% in assay [7] and not below 90% in [8]. The mortality at 3.5 ppm in assay [9] is not below 90%.
